From BindingDB's records for doi:10.7270/Q2JS9NV0 (Nmmlsc, 2009)

Molecular target: Ras-related C3 botulinum toxin substrate 1 (Mus musculus, UniProt P63001)
Assay: analog inhibition of wildtype Rac1 nucleotide binding – biochemical, oxadiazole analogs, multiplex bead flow cytometry, SAR follow-up (AID 2027)

COc1ccc(-c2noc(CCC(=O)N3CCN(c4ccccc4F)CC3)n2)cc1 [1-[4-(2-fluorophenyl)piperazin-1-yl]-3-[3-(4-methoxyphenyl)-1,2,4-oxadiazol-5-yl]propan-1-one]
Ki: 100 nM
